Legend:
[1] = system: adenosine aptamer (linker-Adap) CLIO sensor; assay: Adenosine aptamer CLIO sensor, T2 weighted MRI and T2 relaxation time; format: binding; conditions: for change in contrast of sensor (selectivity control): sensor incubated with 5 mM nucleoside
Protocol: SPIO nanoparticles were chosen as the contrast agents to functionalize by aptamers since it is efficient at dephasing the spins of neighboring water protons, leading to change in T2 [36, 37]. It has also been shown that oligonucleotide functionalized cross-linked dextran coated superparamagnetic iron oxide nanoparticles (CLIOs) form clusters when linked with a complementary sequence. The adenosine sensor comprised CLIO aggregates that are prepared using three components: CLIO functionalized with 3′- or 5′-thiol modified DNA, called 3′Adap-CLIO and 5′Adap-CLIO respectively and a linker DNA, called linker-Adap that can hybridize to both the 3′- and 5′Adap-CLIOs, leading to the formation of clusters.
One segment of the linker is the sequence for the adenosine aptamer. Seven bases of this aptamer are involved in the hybridization with the 5′Adap-CLIO. In the presence of adenosine the aptamer undergoes structure switching in order to form the adenosine binding pocket, which results in disruption of base pairing interactions with 5′Adap-CLIO. The five remaining base pairs between the linker-Adap and the 5′Adap-CLIO are not enough to hold them together at room temperature leading to disassembly of clusters. The dispersed nanoparticles result in a higher T2 as compared to the clusters; and thus the adenosine induced disassembly can be monitored as an increase in T2 values and enhancement in brightness of T2 weighted MRI images.
The prepared sensor was then aliquoted into the wells of a microplate, with progressively increasing amount of adenosine and a T2 weighted MRI image was obtained. An increase in adenosine concentration led to an increase in the brightness of the image, as illustrated in line a) of FIG. 6. This increase was attributed to the increase in T2 due to disassembly of CLIO clusters into smaller particles. It is worth noting that even at 10 μM adenosine a detectable change in contrast was observed.
250 μl of sample was aliquoted into the wells of a microplate and varying amounts of adenosine was added in each well. The samples with serum were prepared by adding 10% human serum. Volume change was compensated by addition of distilled water.

[2] = molecular target: Adenosine Deaminase (ADA) (Bos taurus, UniProt P56658); conditions: adenosine and test molecule, tris-acetate buffer pH 8.0 (FIG. 19) and human serum (FIG. 20)
Adenosine Deaminase (ADA), sequence (P56658 whole entry): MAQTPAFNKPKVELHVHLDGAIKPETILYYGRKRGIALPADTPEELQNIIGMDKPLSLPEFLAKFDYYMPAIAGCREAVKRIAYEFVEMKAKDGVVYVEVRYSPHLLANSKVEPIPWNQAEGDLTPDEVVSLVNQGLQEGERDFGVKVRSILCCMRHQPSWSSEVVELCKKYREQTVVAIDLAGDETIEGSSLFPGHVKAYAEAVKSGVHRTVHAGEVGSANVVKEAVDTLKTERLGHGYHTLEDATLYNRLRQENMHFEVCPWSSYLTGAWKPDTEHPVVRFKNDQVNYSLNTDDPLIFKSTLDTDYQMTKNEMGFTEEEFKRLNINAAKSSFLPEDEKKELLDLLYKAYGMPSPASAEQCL
Protocol: The screening of ADA inhibitors can be monitored with an aptamer system whereby an MRI signal is generated when a molecule inhibits the ADA.
For example, an aggregate of paramagnetic particles can be used to monitor the screening. To this end, a mixture including paramagnetic particles that are attached to oligonucleotides is prepared. A bridge including an aptamer that binds adenosine is also present in the mixture. If the tested molecule is not effective in inhibiting ADA, adenosine is transformed into inosine, and the complementary portions of the oligonucleotides are hybridized to the bridge. Aggregation of the particles into an aggregate follows, and an increase in MRI contrast is not observed.
The resulting dehybridization leads to deaggregation of the aggregate, generating an MRI signal (FIG. 18).
The screening was monitored by incubating with aggregates that included CLIO nanoparticles attached to polynucleotides and a bridge comprising an ADA-binding aptamer. The screening of FIG. 19 was carried out in the presence of tris-acetate buffer at pH 8.0. […]
T2-weighted MRI images were obtained on a 4.7 T NMR instrument using a spin echo pulse sequence with variable echo time (TE=20−100 ms) and a repetition time (TR) of 2000 ms. Relaxation times were measured on the same instrument with the Carr-Purcell-Meiboom-Gill (CPMG) pulse sequence.

Molecule: Nc1ncnc2c1ncn2[C@@H]1O[C@H](CO)[C@@H](O)[C@H]1O [adenosine, Adenosine]
- MRI contrast of sensor in serum ([1]; 10% human serum, adenosine concentration gradient): the contrast within the concentration gradient increases
- adenosine concentration at which a detectable change in contrast was observed ([1]; T2 weighted MRI image, sensor ~20 μg Fe ml-1): 10 µM
- T2 relaxation time of sensor ([1]; at 2.5 Mm adenosine, 36 ms at 0 adenosine): 63 ms

Molecule: Nc1ccn([C@@H]2O[C@H](CO)[C@@H](O)[C@H]2O)c(=O)n1 [control molecule 37, Cytidine]
- change in contrast of sensor (selectivity control) [1]: a significant change in contrast was not observed

Molecule: Nc1nc2c(ncn2[C@@H]2O[C@H](CO)[C@@H](O)[C@H]2O)c(=O)[nH]1 [guanosine]
- change in contrast of sensor (selectivity control) [1]: a significant change in contrast was not observed

Molecule: O=c1ccn([C@@H]2O[C@H](CO)[C@@H](O)[C@H]2O)c(=O)[nH]1 [uridine]
- change in contrast of sensor (selectivity control) [1]: a significant change in contrast was not observed

Molecule: erythro-9-(2-hydroxy-3-nonyl)adenine hydrochloride [EHNA]
- ADA inhibition read as deaggregation of aggregates / increase in MRI brightness [2]: inhibited the conversion of adenosine into inosine
